# Test results: ChEMBL document CHEMBL3044736, “Synthesis, characterization, solvatochromic properties, and antimicrobial evaluation of 5-acetyl-2-thioxo-dihydro-pyrimidine-4,6-dione-based chalcones” (2013)
# Experiments:
# Type in all cases: functional
# Penicillium [1] = assay: Antimicrobial activity against Penicillium wild strain assessed as diameter of growth inhibition zone at 250 ug/ml after 48-96 hr by agar cup diffusion method; conditions: read-out: DIZ
# Penicillium [2] = assay: Antimicrobial activity against Penicillium wild strain assessed as diameter of growth inhibition zone at 100 ug/ml after 48-96 hr by agar cup diffusion method; conditions: read-out: DIZ
# Trichophyton rubrum [3] = assay: Antimicrobial activity against Trichophyton rubrum MTCC 296 assessed as diameter of growth inhibition zone at 100 ug/ml after 48-96 hr by agar cup diffusion method; conditions: read-out: DIZ
# Aspergillus clavatus [4] = assay: Antimicrobial activity against Aspergillus clavatus MTCC 1323 assessed as diameter of growth inhibition zone at 100 ug/ml after 48-96 hr by agar cup diffusion method; conditions: read-out: DIZ
# Candida albicans [5] = assay: Antimicrobial activity against Candida albicans MTCC 227 assessed as diameter of growth inhibition zone at 100 ug/ml after 48-96 hr by agar cup diffusion method; conditions: read-out: DIZ
# Penicillium [6] = assay: Antimicrobial activity against Penicillium wild strain assessed as diameter of growth inhibition zone at 50 ug/ml after 48-96 hr by agar cup diffusion method; conditions: read-out: DIZ
# Trichophyton rubrum [7] = assay: Antimicrobial activity against Trichophyton rubrum MTCC 296 assessed as diameter of growth inhibition zone at 50 ug/ml after 48-96 hr by agar cup diffusion method; conditions: read-out: DIZ
# Aspergillus clavatus [8] = assay: Antimicrobial activity against Aspergillus clavatus MTCC 1323 assessed as diameter of growth inhibition zone at 50 ug/ml after 48-96 hr by agar cup diffusion method; conditions: read-out: DIZ
# Candida albicans [9] = assay: Antimicrobial activity against Candida albicans MTCC 227 assessed as diameter of growth inhibition zone at 50 ug/ml after 48-96 hr by agar cup diffusion method; conditions: read-out: DIZ
# Penicillium [10] = assay: Antimicrobial activity against Penicillium wild strain assessed as diameter of growth inhibition zone at 25 ug/ml after 48-96 hr by agar cup diffusion method; conditions: read-out: DIZ
# Trichophyton rubrum [11] = assay: Antimicrobial activity against Trichophyton rubrum MTCC 296 assessed as diameter of growth inhibition zone at 25 ug/ml after 48-96 hr by agar cup diffusion method; conditions: read-out: DIZ
# Aspergillus clavatus [12] = assay: Antimicrobial activity against Aspergillus clavatus MTCC 1323 assessed as diameter of growth inhibition zone at 25 ug/ml after 48-96 hr by agar cup diffusion method; conditions: read-out: DIZ
# Candida albicans [13] = assay: Antimicrobial activity against Candida albicans MTCC 227 assessed as diameter of growth inhibition zone at 25 ug/ml after 48-96 hr by agar cup diffusion method; conditions: read-out: DIZ
# Penicillium [14] = assay: Antimicrobial activity against Penicillium wild strain by agar cup diffusion method
# Aspergillus clavatus [15] = assay: Antimicrobial activity against Aspergillus clavatus MTCC 1323 by agar cup diffusion method
# Pseudomonas aeruginosa [16] = assay: Antimicrobial activity against Pseudomonas aeruginosa MTCC 1688 assessed as diameter of growth inhibition zone at 25 ug/ml after 18-24 hr by agar cup diffusion method; conditions: read-out: DIZ
# Escherichia coli [17] = assay: Antimicrobial activity against Escherichia coli MTCC 443 assessed as diameter of growth inhibition zone at 25 ug/ml after 18-24 hr by agar cup diffusion method; conditions: read-out: DIZ
# Staphylococcus aureus [18] = assay: Antimicrobial activity against Staphylococcus aureus MTCC 96 assessed as diameter of growth inhibition zone at 25 ug/ml after 18-24 hr by agar cup diffusion method; conditions: read-out: DIZ
# Streptococcus pyogenes [19] = assay: Antimicrobial activity against Streptococcus pyogenes MTCC 442 assessed as diameter of growth inhibition zone at 25 ug/ml after 18-24 hr by agar cup diffusion method; conditions: read-out: DIZ
# Klebsiella pneumoniae [20] = assay: Antimicrobial activity against Klebsiella pneumoniae MTCC 109 by agar cup diffusion method
# Escherichia coli [21] = assay: Antimicrobial activity against Escherichia coli MTCC 443 by agar cup diffusion method
# Pseudomonas aeruginosa [22] = assay: Antimicrobial activity against Pseudomonas aeruginosa MTCC 1688 by agar cup diffusion method
# Staphylococcus aureus [23] = assay: Antimicrobial activity against Staphylococcus aureus MTCC 96 by agar cup diffusion method
# Streptococcus pyogenes [24] = assay: Antimicrobial activity against Streptococcus pyogenes MTCC 442 by agar cup diffusion method
# Trichophyton rubrum [25] = assay: Antimicrobial activity against Trichophyton rubrum MTCC 296 by agar cup diffusion method
# Candida albicans [26] = assay: Antimicrobial activity against Candida albicans MTCC 227 by agar cup diffusion method
# Klebsiella pneumoniae [27] = assay: Antimicrobial activity against Klebsiella pneumoniae MTCC 109 assessed as diameter of growth inhibition zone at 250 ug/ml after 18-24 hr by agar cup diffusion method; conditions: read-out: DIZ
# Pseudomonas aeruginosa [28] = assay: Antimicrobial activity against Pseudomonas aeruginosa MTCC 1688 assessed as diameter of growth inhibition zone at 250 ug/ml after 18-24 hr by agar cup diffusion method; conditions: read-out: DIZ
# Escherichia coli [29] = assay: Antimicrobial activity against Escherichia coli MTCC 443 assessed as diameter of growth inhibition zone at 250 ug/ml after 18-24 hr by agar cup diffusion method; conditions: read-out: DIZ
# Staphylococcus aureus [30] = assay: Antimicrobial activity against Staphylococcus aureus MTCC 96 assessed as diameter of growth inhibition zone at 250 ug/ml after 18-24 hr by agar cup diffusion method; conditions: read-out: DIZ
# Streptococcus pyogenes [31] = assay: Antimicrobial activity against Streptococcus pyogenes MTCC 442 assessed as diameter of growth inhibition zone at 250 ug/ml after 18-24 hr by agar cup diffusion method; conditions: read-out: DIZ
# Klebsiella pneumoniae [32] = assay: Antimicrobial activity against Klebsiella pneumoniae MTCC 109 assessed as diameter of growth inhibition zone at 100 ug/ml after 18-24 hr by agar cup diffusion method; conditions: read-out: DIZ
# Pseudomonas aeruginosa [33] = assay: Antimicrobial activity against Pseudomonas aeruginosa MTCC 1688 assessed as diameter of growth inhibition zone at 100 ug/ml after 18-24 hr by agar cup diffusion method; conditions: read-out: DIZ
# Escherichia coli [34] = assay: Antimicrobial activity against Escherichia coli MTCC 443 assessed as diameter of growth inhibition zone at 100 ug/ml after 18-24 hr by agar cup diffusion method; conditions: read-out: DIZ
# Staphylococcus aureus [35] = assay: Antimicrobial activity against Staphylococcus aureus MTCC 96 assessed as diameter of growth inhibition zone at 100 ug/ml after 18-24 hr by agar cup diffusion method; conditions: read-out: DIZ
# Streptococcus pyogenes [36] = assay: Antimicrobial activity against Streptococcus pyogenes MTCC 442 assessed as diameter of growth inhibition zone at 100 ug/ml after 18-24 hr by agar cup diffusion method; conditions: read-out: DIZ
# Klebsiella pneumoniae [37] = assay: Antimicrobial activity against Klebsiella pneumoniae MTCC 109 assessed as diameter of growth inhibition zone at 50 ug/ml after 18-24 hr by agar cup diffusion method; conditions: read-out: DIZ
# Pseudomonas aeruginosa [38] = assay: Antimicrobial activity against Pseudomonas aeruginosa MTCC 1688 assessed as diameter of growth inhibition zone at 50 ug/ml after 18-24 hr by agar cup diffusion method; conditions: read-out: DIZ
# Escherichia coli [39] = assay: Antimicrobial activity against Escherichia coli MTCC 443 assessed as diameter of growth inhibition zone at 50 ug/ml after 18-24 hr by agar cup diffusion method; conditions: read-out: DIZ
# Staphylococcus aureus [40] = assay: Antimicrobial activity against Staphylococcus aureus MTCC 96 assessed as diameter of growth inhibition zone at 50 ug/ml after 18-24 hr by agar cup diffusion method; conditions: read-out: DIZ
# Streptococcus pyogenes [41] = assay: Antimicrobial activity against Streptococcus pyogenes MTCC 442 assessed as diameter of growth inhibition zone at 50 ug/ml after 18-24 hr by agar cup diffusion method; conditions: read-out: DIZ
# Klebsiella pneumoniae [42] = assay: Antimicrobial activity against Klebsiella pneumoniae MTCC 109 assessed as diameter of growth inhibition zone at 25 ug/ml after 18-24 hr by agar cup diffusion method; conditions: read-out: DIZ
# Trichophyton rubrum [43] = assay: Antimicrobial activity against Trichophyton rubrum MTCC 296 assessed as diameter of growth inhibition zone at 250 ug/ml after 48-96 hr by agar cup diffusion method; conditions: read-out: DIZ
# Aspergillus clavatus [44] = assay: Antimicrobial activity against Aspergillus clavatus MTCC 1323 assessed as diameter of growth inhibition zone at 250 ug/ml after 48-96 hr by agar cup diffusion method; conditions: read-out: DIZ
# Candida albicans [45] = assay: Antimicrobial activity against Candida albicans MTCC 227 assessed as diameter of growth inhibition zone at 250 ug/ml after 48-96 hr by agar cup diffusion method; conditions: read-out: DIZ
smiles,measurement,setting,value
O=C(/C=C/c1ccc(O)cc1)C1C(=O)NC(=S)NC1=O,zone of inhibition at 250 µg/mL,Penicillium [1],24 mm
same,zone of inhibition at 100 µg/mL,Penicillium [2],22 mm
same,zone of inhibition at 100 µg/mL,Trichophyton rubrum [3],24 mm
same,zone of inhibition at 100 µg/mL,Aspergillus clavatus [4],22 mm
same,zone of inhibition at 100 µg/mL,Candida albicans [5],23 mm
same,zone of inhibition at 50 µg/mL,Penicillium [6],19 mm
same,zone of inhibition at 50 µg/mL,Trichophyton rubrum [7],22 mm
same,zone of inhibition at 50 µg/mL,Aspergillus clavatus [8],21 mm
same,zone of inhibition at 50 µg/mL,Candida albicans [9],20 mm
same,zone of inhibition at 25 µg/mL,Penicillium [10],18 mm
same,zone of inhibition at 25 µg/mL,Trichophyton rubrum [11],22 mm
same,zone of inhibition at 25 µg/mL,Aspergillus clavatus [12],21 mm
same,zone of inhibition at 25 µg/mL,Candida albicans [13],16 mm
same,MFC,Penicillium [14],> 1000 µg/mL
same,MIC,Penicillium [14],> 1000 µg/mL
same,MFC,Aspergillus clavatus [15],500 µg/mL
same,MIC,Aspergillus clavatus [15],500 µg/mL
same,zone of inhibition at 25 µg/mL,Pseudomonas aeruginosa [16],10 mm
same,zone of inhibition at 25 µg/mL,Escherichia coli [17],15 mm
same,zone of inhibition at 25 µg/mL,Staphylococcus aureus [18],10 mm
same,zone of inhibition at 25 µg/mL,Streptococcus pyogenes [19],15 mm
same,MBC,Klebsiella pneumoniae [20],200 µg/mL
same,MIC,Klebsiella pneumoniae [20],125 µg/mL
same,MBC,Escherichia coli [21],250 µg/mL
same,MIC,Escherichia coli [21],250 µg/mL
same,MBC,Pseudomonas aeruginosa [22],500 µg/mL
same,MIC,Pseudomonas aeruginosa [22],250 µg/mL
same,MBC,Staphylococcus aureus [23],500 µg/mL
same,MIC,Staphylococcus aureus [23],250 µg/mL
same,MBC,Streptococcus pyogenes [24],250 µg/mL
same,MIC,Streptococcus pyogenes [24],100 µg/mL
same,MFC,Trichophyton rubrum [25],> 1000 µg/mL
same,MIC,Trichophyton rubrum [25],> 1000 µg/mL
same,MFC,Candida albicans [26],500 µg/mL
same,MIC,Candida albicans [26],> 1000 µg/mL
same,zone of inhibition at 250 µg/mL,Klebsiella pneumoniae [27],18 mm
same,zone of inhibition at 250 µg/mL,Pseudomonas aeruginosa [28],18 mm
same,zone of inhibition at 250 µg/mL,Escherichia coli [29],17 mm
same,zone of inhibition at 250 µg/mL,Staphylococcus aureus [30],18 mm
same,zone of inhibition at 250 µg/mL,Streptococcus pyogenes [31],17 mm
same,zone of inhibition at 100 µg/mL,Klebsiella pneumoniae [32],16 mm
same,zone of inhibition at 100 µg/mL,Pseudomonas aeruginosa [33],16 mm
same,zone of inhibition at 100 µg/mL,Escherichia coli [34],16 mm
same,zone of inhibition at 100 µg/mL,Staphylococcus aureus [35],16 mm
same,zone of inhibition at 100 µg/mL,Streptococcus pyogenes [36],16 mm
same,zone of inhibition at 50 µg/mL,Klebsiella pneumoniae [37],11 mm
same,zone of inhibition at 50 µg/mL,Pseudomonas aeruginosa [38],14 mm
same,zone of inhibition at 50 µg/mL,Escherichia coli [39],17 mm
same,zone of inhibition at 50 µg/mL,Staphylococcus aureus [40],14 mm
same,zone of inhibition at 50 µg/mL,Streptococcus pyogenes [41],17 mm
same,zone of inhibition at 25 µg/mL,Klebsiella pneumoniae [42],10 mm
same,zone of inhibition at 250 µg/mL,Trichophyton rubrum [43],24 mm
same,zone of inhibition at 250 µg/mL,Aspergillus clavatus [44],24 mm
same,zone of inhibition at 250 µg/mL,Candida albicans [45],23 mm
